Measured values: patent publication US8563530B2, “Purine nucleoside phosphoramidate” (Gilead Pharmassel LLC, priority 2010, dated 2013)

Assays:
[1] = system: HCV replicon RNA-containing Huh7 cells (clone A cells); assay: HCV replicon assay; format: cell-based; conditions: for Replicon assay result in combination with compound 1: synergism: assayed in combination with compound 1
Description: HCV replicon assay. HCV replicon RNA-containing Huh7 cells (clone A cells; Apath, LLC, St. Louis, Mo.) were kept at exponential growth in Dulbecco's modified Eagle's medium (high glucose) containing 10% fetal bovine serum, 4 mM L-glutamine and 1 mM sodium pyruvate, 1× nonessential amino acids, and G418 (1,000 μg/ml). Antiviral assays were performed in the same medium without G418. Cells were seeded in a 96-well plate at 1,500 cells per well, and test compounds were added immediately after seeding. Incubation time 4 days. At the end of the incubation step, total cellular RNA was isolated (RNeasy 96 kit; Qiagen). Replicon RNA and an internal control (TaqMan rRNA control reagents; Applied Biosystems) were amplified in a single-step multiplex RT-PCR protocol as recommended by the manufacturer.
To express the antiviral effectiveness of a compound, the threshold RT-PCR cycle of the test compound was subtracted from the average threshold RT-PCR cycle of the no-drug control (ΔCtHCV). A ΔCt of 3.3 equals a 1-log 10 reduction (equal to the 90% effective concentration [EC90]) in replicon RNA levels. The cytotoxicity of the test compound could also be expressed by calculating the ΔCtrRNA values. The ΔΔCt specificity parameter could then be introduced (ΔCtHCV−ΔCtrRNA), in which the levels of HCV RNA are normalized for the rRNA levels and calibrated against the no-drug control. Compound 1 was tested for its biological properties based on the preceding assay.

[2] = GVS analysis (hygroscopicity); format: physicochemical

Structure (SMILES): CC(C)(C)OC(=O)N[C@H]1CCCCC/C=C\[C@@H]2C[C@@]2(C(=O)NS(=O)(=O)C2CC2)NC(=O)[C@@H]2C[C@@H](OC(=O)N3Cc4cccc(F)c4C3)CN2C1=O [ITMN-191]
- Replicon assay result in combination with compound 1: synergism [1]: synergism

Structure (SMILES): CC(C)OC(=O)[C@H](C)N[P@](=O)(OC[C@H]1O[C@@H](n2ccc(=O)[nH]c2=O)[C@](C)(F)[C@@H]1O)Oc1ccccc1 [compound E]
- Replicon assay result in combination with compound 1: synergism [1]: synergism

Structure (SMILES): COc1nc(N)nc2c1ncn2[C@@H]1O[C@H](CO[P@@](=O)(N[C@@H](C)C(=O)OC(C)C)Oc2ccccc2)[C@@H](O)[C@@]1(C)F.O [Compound 1.H2O, (S)-2-{(S)-[(1R,4R,5R)-5-(2-Amino-6-methoxy-purin-9-yl)-4-(R)-fluoro-3-hydroxy-4-methyl-tetrahydro-furan-2-ylmethoxy]-phenoxy-phosphorylamino}-propionic acid isopropyl ester monohydrate]
- GVS hygroscopicity [2]: very low hygroscopicity
- GVS reversible weight gain ([2]; at 90% RH): 0.47 % w/w

Structure (SMILES): COc1nc(N)nc2c1ncn2[C@@H]1O[C@H](CO[P@@](=O)(N[C@@H](C)C(=O)OC(C)C)Oc2ccccc2)[C@@H](O)[C@@]1(C)F [Compound 1, SP-(2S)-isopropyl 2-(((((2R,3R,4R,5R)-5-(2-amino-6-methoxy-9H-purin-9-yl)-4-fluoro-3-hydroxy-4-methyltetrahydrofuran-2-yl)methoxy)(phenoxy)phosphoryl)amino)propanoate]
- EC90 ([1]; Hepatitis C virus, Huh-7, 96 h, clone A cells, incubation time 4 days, replicon RNA by RT-PCR, 1-log 10 reduction, read-out: CloneA EC90): 20 nM
